What all share (type): cell-based
The test system of assay [1] is histamine H3 -receptor. The assay can be described thus: Antagonistic activity on the H3-receptor, test preparation not stated. The following applies: Example 6 table, test method not stated. On the procedure:
(§1) The agonistics and antagonistics activities on the H3 -receptor of the various compounds were determined compared to histamine. The test methods used therefor are described in Van der Werf et al., Agents and Actions 20, 3/4 (1987) p. 239-243 and Menkveld et al., European Journal of Pharmacology, 186 (1990) p. 343-347.

The target in assay [2] is T1, histamine H3 -receptor (Cavia porcellus, UniProt Q9JI35).
T1 construct: ileum guinea pig; from tissue; host or cells: guinea pig ileum
T1 sequence (Q9JI35 whole entry): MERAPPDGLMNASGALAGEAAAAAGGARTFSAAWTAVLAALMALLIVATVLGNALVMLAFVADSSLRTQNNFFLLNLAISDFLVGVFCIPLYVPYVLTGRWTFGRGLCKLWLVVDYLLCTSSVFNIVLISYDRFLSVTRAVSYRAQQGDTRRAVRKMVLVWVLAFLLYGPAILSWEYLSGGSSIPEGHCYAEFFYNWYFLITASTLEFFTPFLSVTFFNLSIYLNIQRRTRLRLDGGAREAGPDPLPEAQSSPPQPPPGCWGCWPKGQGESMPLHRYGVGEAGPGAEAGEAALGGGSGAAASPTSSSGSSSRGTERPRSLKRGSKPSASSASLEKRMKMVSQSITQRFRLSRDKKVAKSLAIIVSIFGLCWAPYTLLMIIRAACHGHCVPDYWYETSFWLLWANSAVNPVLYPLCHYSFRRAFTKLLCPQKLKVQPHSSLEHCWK
Briefly: Antagonistic activity on the H3-receptor, ileum guinea pig. On the procedure:
as §1

Assay [3] concerns histamine H3 -receptor. Briefly: Agonistic activity on the H3-receptor, test preparation not stated. As to conditions: in words. As for the experimental part:
as §1

Assay [4] deals with T1, histamine H3 -receptor. Briefly: Agonistic activity on the H3-receptor, ileum guinea pig. The following applies: Table 3, agonistic activity, read-out: pD2 (converted). On the procedure: (§2) The agonistics and antagonistics activities on the H3 -receptor of the various compounds were determined compared to histamine.
Assay [5] concerns the target T2, histamine H3 -receptor (Rattus norvegicus, UniProt Q9QYN8).
T2 construct: Van der Werf et al., Agents and Actions 20, 3/4 (1987) p; 239-243; from tissue
The assay can be described thus: Antagonistic activity on the H3-receptor, rat cortex. As to conditions: Table 2, antagonistic activity, read-out: pA2 (converted). As for the experimental part:
as §1

Assay [6] has as its target T2, histamine H3 -receptor. The assay can be described thus: Agonistic activity on the H3-receptor, rat cortex. As to conditions: Table 3, agonistic activity, read-out: pD2 (converted). On the procedure: as §2
Setting [7] is: Table 2, antagonistic activity, ileum guinea pig, read-out: pA2 (converted).

Each structure is given as a SMILES string. Like-named read-outs stand apart in the source and are kept apart here.

T2 sequence (Q9QYN8 whole entry): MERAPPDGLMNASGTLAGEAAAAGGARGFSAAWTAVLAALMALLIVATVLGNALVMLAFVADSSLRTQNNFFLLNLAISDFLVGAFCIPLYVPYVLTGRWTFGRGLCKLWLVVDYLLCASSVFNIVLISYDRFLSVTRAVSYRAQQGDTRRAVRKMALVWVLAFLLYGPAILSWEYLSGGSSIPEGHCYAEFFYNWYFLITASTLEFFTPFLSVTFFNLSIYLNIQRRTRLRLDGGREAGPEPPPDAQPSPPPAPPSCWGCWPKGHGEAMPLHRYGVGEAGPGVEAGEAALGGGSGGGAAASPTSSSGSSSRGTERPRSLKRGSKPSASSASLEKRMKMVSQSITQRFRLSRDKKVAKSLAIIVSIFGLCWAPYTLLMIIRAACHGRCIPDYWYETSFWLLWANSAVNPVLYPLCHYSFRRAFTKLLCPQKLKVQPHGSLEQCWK

By pA2 is commonly meant the negative logarithm of the molar antagonist concentration that doubles the agonist concentration needed for the same response. A low value points to a weaker antagonist. `N=C(NCCc1ccc(Cl)cc1)SCCCc1c[nH]cn1` [VUF 4657] gave a pA2 in the assay on histamine H3 -receptor [1] of 9.2.

`Cc1ccc(CNC(=N)SCCCc2c[nH]cn2)cc1` [VUF 4653, S-[3-(4(5)-imidazolyl)propyl]-N-(4-methylbenzyl) isothiourea.2HBr]: the pA2 with histamine H3 -receptor [1] is 9.36. This pA2 and that of the compound before are within 0.2 log units of each other. Take `N=C(NCc1ccccc1)SCCc1c[nH]cn1` [VUF 9028, N-benzyl-S-[2-(imidazol-4-yl)ethyl]isothiourea dipicrate]: the Kb on histamine H3 -receptor [2] was 0.0158 µM. With `N=C(N)SCCc1c[nH]cn1` [VUF 8325, S-[2-(4-imidazolyl)ethyl]isothiourea], the agonistic activity result with histamine H3 -receptor [3] is recorded as “strong agonistic activity”. Besides, the EC50 on histamine H3 -receptor [4] was 0.00794 µM.

As to `CNC(=N)SCCc1c[nH]cn1` [VUF 8621], at histamine H3 -receptor [4], the EC50 was 0.0501 µM. Take `N=C(NCc1ccccc1)SCCCCc1c[nH]cn1` [VUF 4661, N-benzyl-S-[4-(4(5)-imidazolyl)butyl]isothiourea dipicrate]: the pA2 in the assay with histamine H3 -receptor [1] was 8.72. As to `N=C(NCCc1ccccc1)SCCc1c[nH]cn1` [VUF 9029, S-[2-(imidazol-4-yl)ethyl]-N-(2-phenylethyl)-isothiourea], the Kb at histamine H3 -receptor [2] is 0.01 µM. `N=C(NCc1ccc(Br)cc1)SCCCc1c[nH]cn1` [VUF 4651, N-(4-bromobenzyl)-S-[3-(4(5)-imidazolyl)propyl]isothiourea.2HBr] showed a pA2 in the assay with histamine H3 -receptor [1] of 9.77. On to `N=C(NCCSCc1ccccc1)SCCc1c[nH]cn1` [VUF 8404], for which the Kb on histamine H3 -receptor [2] is 0.0398 µM.

For the compound `N=C(Nc1ccccc1)SCCc1c[nH]cn1` [VUF 8397], the Kb on histamine H3 -receptor [5] was 0.1 µM. In turn, `N=C(NCCc1ccc(Br)cc1)SCCCc1c[nH]cn1` [VUF 4598, N-[2-(4-bromophenyl)ethyl]-S-[3-(4(5)-imidazolyl)propyl] isothiourea.2HBr] had a pA2 in the assay with histamine H3 -receptor [1] of 9.0. In turn, `N=C(NCc1ccc(I)cc1)SCCCc1c[nH]cn1` [VUF 4652, N-(4-iodobenzyl)-S-[3-(4(5)-imidazolyl)propyl]isothiourea.2HBr] showed a pA2 in the assay on histamine H3 -receptor [1] of 9.21. `COc1ccc(CNC(=N)SCCCc2c[nH]cn2)cc1` [VUF 4654] had a pA2 in the assay with histamine H3 -receptor [1] of 9.39. As for `N=C(N)NCCc1c[nH]cn1` [VUF 83100], the EC50 at histamine H3 -receptor [6] is 0.0398 µM. In turn, `N=C(NCCc1ccccc1)SCCCc1c[nH]cn1` [VUF 9151, S-[3-(4(5)-imidazolyl)propyl]-N-(2-phenylethyl)isothiourea] gave a Kb at histamine H3 -receptor [2] of 0.00158 µM. On to `N=C(NCCc1c[nH]cn1)Nc1ccccc1` [VUF 9006, N-[2-(imidazol-4-yl)ethyl]-N'-phenyl guanidine dipicrate], for which the Kb at histamine H3 -receptor [2] (setting [7]) was 1.58 µM. On the same count and under the same terms, the figure for `N=C(NCC1CCCCC1)SCCCc1c[nH]cn1` [VUF 9163, N-cyclohexylmethyl-S-[3-(4(5)-imidazolyl)propyl]isothiourea] is 0.00158 µM; for `NC(=NCCCCc1ccccc1)SCCCc1cnc[nH]1` [VUF 4571, S-[3-(4(5)-imidazolyl)propyl]-N-(4-phenylbutyl)isothiourea] it is 0.00398 µM. Regarding `N=C(NCc1ccc(F)cc1)SCCCc1c[nH]cn1` [VUF 4650, N-(4-fluorobenzyl)-S-[3-(4(5)-imidazolyl)propyl]isothiourea.2HBr], in the assay with histamine H3 -receptor [1], the pA2 came to 9.38. With `N=C(NCCc1ccccc1)SCCCCc1c[nH]cn1` [VUF 4662, N-(2-phenylethyl)-S-[4-(4(5)-imidazolyl)butyl]isothiourea dipicrate], the pA2 in the assay on histamine H3 -receptor [1] was found to be 8.13. In the case of `CN=C(NCCc1ccccc1)SCCc1c[nH]cn1` [VUF 9051], the Kb at histamine H3 -receptor [2] is 0.0158 µM. With `N=C(NCCc1ccccc1)NCCc1cnc[nH]1` [VUF 9007, N-[2-(imidazol-4-yl)ethyl]-N'-phenyl-ethylguanidine dipicrate], the Kb on histamine H3 -receptor [2] (setting [7]) was 0.501 µM. The compound `NC(=NCc1ccc(Cl)cc1)SCCCc1cnc[nH]1` [VUF 9153, S-[3-(4(5)-imidazolyl)propyl]-N-(4-chlorobenzyl)isothiourea] gave a Kb on histamine H3 -receptor [2] of 0.000126 µM. For the compound `N=C(NCc1ccccc1)SCCCc1c[nH]cn1` [VUF 9107, N-benzyl-S-[3-(4(5)-imidazolyl)propyl]isothiourea], on histamine H3 -receptor [2], the Kb is 0.00158 µM. On to `N=C(NCCCc1c[nH]cn1)NCCSCc1ccccc1` [VUF 8405], for which, at histamine H3 -receptor [2] (setting [7]), the Kb is 0.0126 µM. As to `COc1ccc(CCNC(=N)SCCCc2c[nH]cn2)cc1` [VUF 4659], the pA2 in the assay with histamine H3 -receptor [1] is listed as 8.3. Consider `N=C(NCCSCc1ccccc1)SCCCc1c[nH]cn1` [VUF 8414, N-[2-(benzylthio)ethyl]-S-[3-(imidazol-4-yl)propyl]isothiourea], for which the Kb at histamine H3 -receptor [2] (setting [7]) was 0.00251 µM. Take `N=C(NCCCCc1ccccc1)SCCc1c[nH]cn1` [VUF 9031]: the Kb at histamine H3 -receptor [2] was 0.02 µM. The same measure, in the same setting: the figure for `N=C(NCCCc1ccccc1)SCCc1c[nH]cn1` [VUF 9030] is 0.0251 µM. Compound `N=C(NCc1ccc(Cl)c(Cl)c1)SCCCc1c[nH]cn1` [VUF 4656, N-(3,4-dichlorobenzyl)-S-[3-(4(5)-imidazolyl)propyl] isothiourea.2HBr] displayed a pA2 in the assay with histamine H3 -receptor [1] of 8.96.

On to `N=C(NCCCc1ccccc1)SCCCc1c[nH]cn1` [VUF 9152, S-[3-(4(5)-imidazolyl)propyl]-N-(3-phenylpropyl)isothiourea], for which the Kb at histamine H3 -receptor [2] was 0.00501 µM. In the case of `Cc1ccc(CCNC(=N)SCCCc2c[nH]cn2)cc1` [VUF 4658, S-[3-(4(5)-imidazolyl)propyl]-N-[2-(4-methylphenyl)ethyl]isothiourea.2HBr], the pA2 in the assay on histamine H3 -receptor [1] was determined as 8.4. In the case of `N=C(NCCSC(c1ccccc1)c1ccccc1)SCCc1c[nH]cn1` [VUF 8409], the Kb on histamine H3 -receptor [2] (setting [7]) was 0.251 µM.

(Values after patent US5837718A, “Imidazole-derivatives having agonistic or antagonistic activity on the histamine H3-receptor” (Seed Capital Investment (SCI) B.V., priority 1995, dated 1998).)
